{"source": "BindingDB's records for doi:10.1111/j.1747-0285.2007.00488.x", "about": "(Shanghai Jiao Tong University, 2007)", "target": "Vascular endothelial growth factor receptor 2 (Homo sapiens, UniProt P35968)", "sequence (P35968 whole entry)": "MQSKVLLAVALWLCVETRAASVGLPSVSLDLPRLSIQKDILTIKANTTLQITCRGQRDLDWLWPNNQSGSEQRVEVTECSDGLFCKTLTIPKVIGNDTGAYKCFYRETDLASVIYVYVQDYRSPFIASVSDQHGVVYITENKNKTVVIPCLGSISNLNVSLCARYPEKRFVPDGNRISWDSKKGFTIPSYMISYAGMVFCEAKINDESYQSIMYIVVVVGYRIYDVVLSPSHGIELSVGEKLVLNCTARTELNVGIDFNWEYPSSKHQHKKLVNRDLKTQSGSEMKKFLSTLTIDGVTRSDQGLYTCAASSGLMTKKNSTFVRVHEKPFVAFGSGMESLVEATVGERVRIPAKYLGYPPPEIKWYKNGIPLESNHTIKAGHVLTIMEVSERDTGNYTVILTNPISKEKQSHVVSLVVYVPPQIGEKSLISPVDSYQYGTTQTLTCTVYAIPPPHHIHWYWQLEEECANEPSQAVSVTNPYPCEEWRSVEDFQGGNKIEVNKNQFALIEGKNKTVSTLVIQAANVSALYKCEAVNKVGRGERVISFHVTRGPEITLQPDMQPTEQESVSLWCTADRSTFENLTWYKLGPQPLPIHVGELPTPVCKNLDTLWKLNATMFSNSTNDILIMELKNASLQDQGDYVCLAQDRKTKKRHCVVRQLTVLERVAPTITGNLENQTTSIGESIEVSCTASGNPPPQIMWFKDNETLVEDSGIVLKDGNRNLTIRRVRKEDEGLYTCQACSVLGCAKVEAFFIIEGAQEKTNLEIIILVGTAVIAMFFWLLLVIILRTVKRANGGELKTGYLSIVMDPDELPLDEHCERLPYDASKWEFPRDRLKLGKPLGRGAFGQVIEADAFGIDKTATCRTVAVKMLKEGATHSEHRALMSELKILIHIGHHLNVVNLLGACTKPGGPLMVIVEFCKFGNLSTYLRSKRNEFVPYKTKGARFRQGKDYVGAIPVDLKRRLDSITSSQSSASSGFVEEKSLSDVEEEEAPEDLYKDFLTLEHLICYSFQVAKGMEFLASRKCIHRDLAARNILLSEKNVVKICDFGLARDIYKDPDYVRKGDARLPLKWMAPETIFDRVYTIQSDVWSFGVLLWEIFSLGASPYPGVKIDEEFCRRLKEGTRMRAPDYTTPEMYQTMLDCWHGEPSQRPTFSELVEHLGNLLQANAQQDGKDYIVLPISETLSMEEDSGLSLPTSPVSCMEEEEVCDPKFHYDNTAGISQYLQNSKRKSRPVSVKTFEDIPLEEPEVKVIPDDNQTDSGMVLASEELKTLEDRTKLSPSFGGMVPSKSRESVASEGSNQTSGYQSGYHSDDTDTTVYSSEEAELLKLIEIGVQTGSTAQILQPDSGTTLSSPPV", "test": "Kinase Inhibition Assay"}
{"smiles": "NC[C@@H]1O[C@H](O[C@H]2[C@@H](O)[C@H](O[C@@H]3[C@@H](O)[C@H](N)C[C@H](N)[C@H]3O[C@H]3O[C@H](CN)[C@@H](O)[C@H](O)[C@H]3N)O[C@@H]2CO)[C@H](N)[C@@H](O)[C@@H]1O", "note": "[KDR Kinase Inhibitor, 3]", "values": [{"measurement": "IC50", "result": 18, "unit": "nM"}]}
